Data published in PMC10610134, “Verubulin (Azixa) Analogues with Increased Saturation: Synthesis, SAR and Encapsulation in Biocompatible Nanocontainers Based on Ca^2+ or Mg^2+ Cross-Linked Alginate” (Pharmaceuticals, 2023).

Key:
[1] = system: human lung epithelial carcinoma cell line A549; test: MTT cytotoxicity assay, A549; format: cell-based; settings: A549, 64 h treatment, MTT, read-out: IC50, nM A549
Text: The obtained series of verubulin analogues 2a–r (which also included three by-products isolated in the reactions according to Scheme 2) were initially evaluated for cytotoxicity against commonly used human breast cancer cell line MCF7′ (fast-growth subclone), human lung epithelial carcinoma cell line A549 and etiologically non-cancer immortalized lung fibroblast cell line VA13 (WI38 subline 2RA). Cytotoxicity against immortalized human embryonic kidney cell line HEK293T, characterized by a high growth rate, was also studied regarding cytotoxicity against non-cancerous fast-growth cells. A standard MTT assay was performed; verubulin (1) served as a positive reference. The data obtained are presented in Table 1 (for dose–response curves, see Supplementary Materials).
Human breast cancer cell line MCF7′ and human lung adenocarcinoma cell line A549 were kindly provided by Dr. S. Dmitriev (Lomonosov Moscow State University), immortalized human fibroblast cell line VA13 (WI38 subline 2RA) was kindly provided by Dr. M. Rubtsova (Lomonosov Moscow State University), human embryonic kidney HEK293T cell line was kindly provided by Dr. E. Knyazhanskaya (Lomonosov Moscow State University). MCF7′, VA13, A549 and HEK293T cell lines were maintained in DMEM/F-12 (Thermo Fisher Scientific, Waltham, MA, USA) culture medium containing 10% fetal bovine serum (Thermo Fisher Scientific, Waltham, MA, USA) and 50 μg/mL penicillin and 0.05 mg/mL streptomycin at 37 °C (Thermo Fisher Scientific, Waltham, MA, USA) in 5% CO2. Cells were maintained at 37 °C in a humidified MCO-18AC incubator (Sanyo, Tokyo, Japan) supplied with 5% CO2. Cell cultures were tested for the absence of mycoplasma and validated by STR.
The cytotoxicity of the substances was tested using the 3-(4,5-dimethylthiazol-2-yl)2,5-diphenyl tetrazolium bromide (MTT) assay with some modifications. A total of 2500 cells per well for the MCF7′, HEK293T, A549 cell lines or 4000 cells per well for the VA-13 cell line were plated out in 135 μL of DMEM-F12 media (Gibco, Thermo Fisher Scientific, Waltham, MA, USA) in a 96-well plate and incubated in the 5% CO2 incubator for the first 20 h without treatment. Then, 15.8 μL of media–DMSO solutions of tested substances (final DMSO concentrations in the media were 0.5% or less) was added to the cells (triplicate each) and cells were treated for 64 h with 0.023 mg/L–50 mg/L (eight dilutions) of compounds 2f,n,o,r; 1.14 μg/L–2.5 mg/L (eight dilutions) of compounds 2a,b,d,g,h,k,l,p,q; 57.2 ng/L–125 μg/L (eight dilutions) of compounds 2e,i,j; 22.9 ng/L–50 μg/L (eight dilutions) of compounds 1,2c,m. Doxorubicin was used as a control substance. Then, the MTT reagent (Paneco LLC, Moscow, Russia) was added to cells up to a final concentration of 0.5 g/L (10 × stock solution in PBS was used) and incubated for 2 h at 37 °C in the incubator, under an atmosphere of 5% CO2. Then, the MTT solution was discarded, and 140 μL of DMSO (PharmaMed LLC, Moscow, Russia) was added. The plates were swayed on a shaker (120 rpm) to dissolve the formazan. The absorbance was measured using a microplate reader (VICTOR X5 Light Plate Reader, PerkinElmer, Waltham, MA, USA) at a wavelength of 555 nm (in order to measure formazan concentration). The results were used to construct dose–response graphs and to estimate IC50 values (IC50 is the concentration resulting in half of the maximal cytotoxic effect) with GraphPad Prism V, GraphPadSoftware, Inc., San Diego, CA, USA.

HCT116 cells = test: Apoptosis induction, Annexin V / 7-AAD flow cytometry; format: cell-based, human
Protocol: Apoptosis is an important and active regulatory pathway of cell growth and proliferation. Annexin V is a calcium-dependent phospholipid-binding protein with a high affinity for phosphatidylserine (PS), a membrane component normally localized to the internal face of the cell membrane. Early in the apoptotic pathway, molecules of PS are translocated to the outer surface of the cell membrane where Annexin V can readily bind them.
After incubation, the cells were harvested by trypsinization, precipitated by centrifugation (3000 rpm), washed with cold PBS and recentrifuged. Aliquots of cells were processed as recommended in the Muse Annexin V& Dead Cell Kit (Luminex Corporation, Austin, TX, USA). The results were recorded on a Muse Cell Analyzer flow cytometer (Merck, Rahway, NJ, USA).

[2] = system: tubulin (Tb) and microtubule-associated proteins (MAPs) from mouse brains; test: Tubulin + MAP polymerization assay; format: biochemical; settings: GTP-dependent polymerization, read-out: IC50 of tubulin polymerization (initial rates, optical density at 355 nm)

COc1ccc(N(C)c2nc(C)nc3c2CCCC3)cc1 [Compound 2c, N-(4-methoxyphenyl)-N,2-dimethyl-5,6,7,8-tetrahydroquinazolin-4-amine]
IC50 [1]: 2.7 ± 0.4 nM
apoptotic cells, early plus late (HCT116 cells; 2 × IC50, 48 h, HCT116): 30%
Live (viable cells) (HCT116 cells; human, 48 h): 69.45%
IC50 [2]: 7.2 ± 1.9 µM
